From the supplement of paper PMC10307832

Key:
Assay in all cases: relative viability (nuclei count vs DMSO), 5 days (fraction); higher = more cells survive
[1] = compound: CCn1c(-c2nonc2N)nc2c(C#CC(C)(C)O)ncc(OC[C@H]3CCCNC3)c21 + C[C@@H](Oc1cc(-c2cnn(C3CCNCC3)c2)cnc1N)c1c(Cl)ccc(F)c1Cl [Crizotinib] (partner 1 µM)
Method in brief: (§1)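 Dosing by pin tool came one day after lung cancer cell lines were seeded in 1536-well plates, using either one drug or a fixed anchor-drug dose plus five library-drug doses (not always all listed) in √10 steps. After 5 days, nuclei were counted on 4× images. Relative viability is treated-well nuclei count divided by vehicle-well nuclei count, and values are medians of duplicate plates.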

BAM7 + Lapatinib = compound: CCOC1=CC=CC=C1N=NC2=C(NN(C2=O)C3=NC(=CS3)C4=CC=CC=C4)C [BAM7] + CS(=O)(=O)CCNCc1ccc(-c2ccc3ncnc(Nc4ccc(OCc5cccc(F)c5)c(Cl)c4)c3c2)o1 [Lapatinib] (partner 2 µM)
Method in brief: as §1

[2] = compound: CCn1c(-c2nonc2N)nc2c(C#CC(C)(C)O)ncc(OC[C@H]3CCCNC3)c21 + O=C(c1cc(Cc2n[nH]c(=O)c3ccccc23)ccc1F)N1CCN(C(=O)C2CC2)CC1 [Olaparib] (partner 8 µM)
Method in brief: as §1

[3] = compound: CCn1c(-c2nonc2N)nc2c(C#CC(C)(C)O)ncc(OC[C@H]3CCCNC3)c21 + Nc1ncn([C@H]2C[C@H](O)[C@@H](CO)O2)c(=O)n1 [Decitabine] (partner 2 µM)
Method in brief: as §1

| Cell Line | relative viability ([1]; first compound 0.01 µM) | relative viability ([1]; first compound 0.03162 µM) | relative viability ([1]; first compound 0.1 µM) | relative viability ([1]; first compound 0.3162 µM) | relative viability ([1]; first compound 1 µM) | relative viability (BAM7 + Lapatinib; first compound 0.5 µM) | relative viability (BAM7 + Lapatinib; first compound 5 µM) | relative viability (BAM7 + Lapatinib; first compound 15.81 µM) | relative viability (BAM7 + Lapatinib; first compound 50 µM) | relative viability ([2]; first compound 0.01 µM) | relative viability ([2]; first compound 0.03162 µM) | relative viability ([2]; first compound 0.1 µM) | relative viability ([2]; first compound 0.3162 µM) | relative viability ([2]; first compound 1 µM) | relative viability ([3]; first compound 0.01 µM) | relative viability ([3]; first compound 0.03162 µM) | relative viability ([3]; first compound 0.1 µM) | relative viability ([3]; first compound 0.3162 µM) | relative viability ([3]; first compound 1 µM) |
| --- | --- | --- | --- | --- | --- | --- | --- | --- | --- | --- | --- | --- | --- | --- | --- | --- | --- | --- | --- |
| NCI-H1651 | 0.857 | 0.829 | 0.877 | 0.853 | 0.893 | 0.747 | 0.756 | 0.831 | 0.858 | 0.194 | 0.189 | 0.197 | 0.185 | 0.215 | 0.582 | 0.608 | 0.652 | 0.597 | 0.663 |
| NCI-H1666 | 1.04 | 1.1 | 0.966 | 0.943 | 0.968 | 0.47 | 0.7 | 0.564 | 0.754 | 0.793 | 0.722 | 0.752 | 0.769 | 0.778 | 0.71 | 0.657 | 0.809 | 0.834 | 0.735 |
| NCI-H1734 | 0.629 | 0.721 | 0.682 | 0.685 | 0.641 | 1.1 | 1.23 | 0.974 | 1.11 | 0.625 | 0.573 | 0.575 | 0.555 | 0.618 | 0.453 | 0.496 | 0.546 | 0.465 | 0.484 |
| NCI-H1755 | 0.877 | 0.866 | 0.84 | 0.892 | 0.849 | 1.06 | 1.13 | 1.04 | 0.979 | 0.969 | 0.891 | 0.873 | 0.847 | 0.917 | 0.727 | 0.753 | 0.673 | 0.669 | 0.722 |
| NCI-H1792 | 0.961 | 0.948 | 0.95 | 0.891 | 0.78 | 0.963 | 0.914 | 1.09 | 0.842 | 0.53 | 0.502 | 0.473 | 0.374 | 0.589 | 0.558 | 0.499 | 0.547 | 0.419 | 0.518 |
| NCI-H1915 | 0.909 | 0.909 | 0.809 | 0.872 | 0.856 | 1.02 | 1.09 | 0.911 | 1.04 | 0.258 | 0.277 | 0.225 | 0.249 | 0.255 | 0.254 | 0.252 | 0.258 | 0.248 | 0.248 |
| NCI-H1944 | 1.07 | 1.07 | 1.02 | 1.07 | 1.09 | 0.894 | 0.998 | 0.842 | 0.954 | 0.393 | 0.418 | 0.4 | 0.41 | 0.407 | 0.443 | 0.415 | 0.45 | 0.446 | 0.448 |
| NCI-H1975 | 0.945 | 1.08 | 0.893 | 1.03 | 0.98 | 0.848 | 0.77 |  | 0.819 | 0.745 | 0.809 | 0.837 | 0.784 | 0.757 | 0.428 | 0.382 | 0.378 | 0.409 | 0.359 |
| NCI-H1993 | 0.856 | 0.877 | 0.92 | 0.775 | 0.887 | 0.76 | 0.915 | 0.763 | 0.906 | 1.14 | 1.13 | 0.963 | 0.943 | 0.985 | 0.534 | 0.643 | 0.599 | 0.63 | 0.677 |
| NCI-H2009 | 0.941 | 1.03 | 1.09 | 1.02 | 1.07 | 1.03 | 1.06 | 0.898 | 0.938 | 0.655 | 0.673 | 0.682 | 0.685 | 0.75 | 0.35 | 0.469 | 0.354 | 0.342 | 0.39 |
| NCI-H2023 | 0.683 | 0.67 | 0.557 | 0.583 | 0.549 | 1.05 | 0.751 | 0.737 | 1.09 | 0.501 | 0.454 | 0.437 | 0.381 | 0.475 | 0.207 | 0.202 | 0.221 | 0.245 | 0.236 |
| NCI-H2085 | 0.882 | 0.882 | 0.802 | 0.817 | 0.749 | 0.764 | 0.612 | 0.74 | 0.881 | 0.758 | 0.807 | 0.795 | 0.755 | 0.725 | 0.489 | 0.517 | 0.601 | 0.58 | 0.556 |
| NCI-H2087 | 0.729 | 0.748 | 0.942 | 0.847 | 0.732 | 1.12 | 1.17 | 1.08 | 0.934 | 0.528 |  | 0.533 | 0.569 | 0.543 | 0.327 |  | 0.283 | 0.208 | 0.326 |
| NCI-H2126 | 1.01 | 1 | 0.993 | 0.974 | 1.06 | 0.726 | 0.664 | 0.743 | 0.755 | 0.917 | 0.927 | 0.977 | 0.893 | 0.95 | 0.505 | 0.608 | 0.583 | 0.54 | 0.548 |
| NCI-H2170 | 1.16 | 1.26 | 1.1 | 1.15 | 1.24 | 0.264 | 0.285 | 0.258 | 0.287 | 0.654 | 0.567 | 0.645 | 0.559 | 0.586 | 0.503 | 0.445 | 0.475 | 0.454 | 0.53 |
